Test results as given in patent US9488664B2, “Diagnostic agent for tumor” (SBI Pharmaceuticals Co., Ltd., priority 2012, dated 2016).

Assay: Side effects (stomach discomfort, nausea) in individuals given 5-ALA
Assay type: in vivo, human
Method: A total of eight individuals including seven healthy volunteers in whom no particular abnormality was found by health examination and the like and one volunteer with a malignant tumor, who was given a diagnosis of cancer by a doctor, were studied. The average body weight of the volunteers was 50 kg. The volunteers were instructed to ingest one capsule encapsulating 100 mg of 5-ALA before sleep and collect the first urine at the time of wake-up. Also, they were instructed to ingest, on another day, three capsules, each encapsulating 100 mg of 5-ALA, before sleep and collect the first urine at the time of wake-up.
From the above results, it was shown that administration at a dose of 300 mg can distinguish between not only the presence and absence of a tumor, but also a malignant tumor and a benign tumor. Also, it was shown that a malignant tumor can be detected by administering 100 mg of 5-ALA.
A total of 10 individuals including five healthy volunteers in whom no particular abnormality was found by health examination and the like and five volunteers with a malignant tumor, who were given a diagnosis of cancer by a doctor, ingested 1 g of 5-ALA. […]

Question: With `NCC(=O)CCC(=O)O` [5-ALA, 5-aminolevulinic acid] as the compound, how does the “stomach discomfort and nausea” value (100 mg and 300 mg 5-ALA oral, eight individuals) read?
Answer: neither stomach discomfort nor nausea was observed

Question: What about the “stomach discomfort and nausea” value (1 g 5-ALA ingested, 10 individuals) of the same compound?
Answer: some of the volunteers developed stomach discomfort and nausea
